The source of these data is the SangsterLogP compilation.

The nature of the series: method code SF-HPLC, from DOI: 10.1111/j.2042-7158.1987.tb06262.x, PMID: 2884287. As to conditions: pH 3.0.

Regarding `Cn1c(=O)c2[nH]c(=O)[nH]c2n(C)c1=O`, the log distribution coefficient (logD) – broadly, lipophilicity at a set pH, counting ionised and neutral species – is -0.52. The same measure for `Cn1cnc2[nH]c(=O)[nH]c(=O)c21`: -0.89. The value for `Cn1c(=O)[nH]c(=O)c2[nH]c(=O)[nH]c21` was -1.08; that for `Cn1c(=O)[nH]c2[nH]c(=O)[nH]c2c1=O` was -0.57; that for `Cn1c(=O)[nH]c2nc[nH]c2c1=O` was -0.27. In the case of `CN(C=O)c1c(N)n(C)c(=O)n(C)c1=O`, the log distribution coefficient (logD) is -1.32.

On to `Cn1c(=O)[nH]c(=O)c2c1[nH]c(=O)n2C`, for which the logD was -1.33. The same measure for `CN(C=O)c1c(N)[nH]c(=O)n(C)c1=O`: -2.03. Compound `Cn1c(N)c(NC=O)c(=O)n(C)c1=O` yielded a logD of -0.64. With `Cn1c(=O)[nH]c2[nH]c(=O)n(C)c2c1=O`, the logD was -0.22.

With `Cn1c(=O)[nH]c2[nH]c(=O)[nH]c(=O)c21`, the logD was -1.18. The value for `Cn1c(=O)c2c([nH]c(=O)n2C)n(C)c1=O` was -0.37.

For the compound `CN(C=O)c1c(N)n(C)c(=O)[nH]c1=O`, the pH-dependent lipophilicity (logD) was -1.3.
